Reference: ChEMBL document CHEMBL3046669, “Insecticide resistance of the oriental fruit fly, Bactrocera dorsalis (Hendel) (Diptera: Tephritidae), in mainland China” (2011)
Converted amounts (≈) assume the structure as drawn.

Key:
Format in all cases: functional
Bactrocera dorsalis [1] = assay: Insecticidal activity against adult Bactrocera dorsalis YJ08 assessed as mortality after 24 hr; conditions: YJ08, 24 h
Bactrocera dorsalis [2] = assay: Insecticidal activity against adult Bactrocera dorsalis HK07 assessed as mortality after 24 hr; conditions: HK07, 24 h
Bactrocera dorsalis [3] = assay: Resistance ratio of LC50 for adult Bactrocera dorsalis HY07 to LC50 for adult Bactrocera dorsalis after 24 hr
Bactrocera dorsalis [4] = assay: Resistance ratio of LC50 for adult Bactrocera dorsalis YJ07 to LC50 for adult Bactrocera dorsalis after 24 hr
Bactrocera dorsalis [5] = assay: Resistance ratio of LC50 for adult Bactrocera dorsalis NN08 to LC50 for adult Bactrocera dorsalis after 24 hr
Bactrocera dorsalis [6] = assay: Insecticidal activity against adult Bactrocera dorsalis QY07 assessed as mortality after 24 hr; conditions: QY07, 24 h
Bactrocera dorsalis [7] = assay: Resistance ratio of LC50 for adult Bactrocera dorsalis ZJ07 to LC50 for adult Bactrocera dorsalis after 24 hr
Bactrocera dorsalis [8] = assay: Insecticidal activity against adult Bactrocera dorsalis GZ08 assessed as mortality after 24 hr; conditions: GZ08, 24 h
Bactrocera dorsalis [9] = assay: Insecticidal activity against adult Bactrocera dorsalis GZ07 assessed as mortality after 24 hr; conditions: GZ07, 24 h
Bactrocera dorsalis [10] = assay: Resistance ratio of LC50 for adult Bactrocera dorsalis C-R-48 to LC50 for adult Bactrocera dorsalis
Bactrocera dorsalis [11] = assay: Resistance ratio of LC50 for adult Bactrocera dorsalis FZ07 to LC50 for adult Bactrocera dorsalis after 24 hr
Bactrocera dorsalis [12] = assay: Resistance ratio of LC50 for adult Bactrocera dorsalis HK07 to LC50 for adult Bactrocera dorsalis after 24 hr
Bactrocera dorsalis [13] = assay: Resistance ratio of LC50 for adult Bactrocera dorsalis MM07 to LC50 for adult Bactrocera dorsalis after 24 hr
Bactrocera dorsalis [14] = assay: Insecticidal activity against adult Bactrocera dorsalis ZJ07 assessed as mortality after 24 hr; conditions: ZJ07, 24 h
Bactrocera dorsalis [15] = assay: Resistance ratio of LC50 for adult Bactrocera dorsalis CS07 to LC50 for adult Bactrocera dorsalis after 24 hr
Bactrocera dorsalis [16] = assay: Insecticidal activity against adult Bactrocera dorsalis CS08 assessed as mortality after 24 hr; conditions: CS08, 24 h
Bactrocera dorsalis [17] = assay: Resistance ratio of LC50 for adult Bactrocera dorsalis FZ08 to LC50 for adult Bactrocera dorsalis after 24 hr
Bactrocera dorsalis [18] = assay: Resistance ratio of LC50 for adult Bactrocera dorsalis QY07 to LC50 for adult Bactrocera dorsalis after 24 hr
Bactrocera dorsalis [19] = assay: Resistance ratio of LC50 for adult Bactrocera dorsalis HZ08 to LC50 for adult Bactrocera dorsalis after 24 hr
Bactrocera dorsalis [20] = assay: Insecticidal activity against adult Bactrocera dorsalis MM08 assessed as mortality after 24 hr; conditions: MM08, 24 h
Bactrocera dorsalis [21] = assay: Insecticidal activity against adult Bactrocera dorsalis HZ08 assessed as mortality after 24 hr; conditions: HZ08, 24 h
Bactrocera dorsalis [22] = assay: Insecticidal activity against adult Bactrocera dorsalis FZ08 assessed as mortality after 24 hr; conditions: FZ08, 24 h
Bactrocera dorsalis [23] = assay: Insecticidal activity against adult Bactrocera dorsalis WX08 assessed as mortality after 24 hr; conditions: WX08, 24 h
Bactrocera dorsalis [24] = assay: Resistance ratio of LC50 for adult Bactrocera dorsalis CH08 to LC50 for adult Bactrocera dorsalis after 24 hr
Bactrocera dorsalis [25] = assay: Insecticidal activity against adult Bactrocera dorsalis NN07 assessed as mortality after 24 hr; conditions: NN07, 24 h
Bactrocera dorsalis [26] = assay: Insecticidal activity against adult Bactrocera dorsalis HZ07 assessed as mortality after 24 hr; conditions: HZ07, 24 h
Bactrocera dorsalis [27] = assay: Insecticidal activity against adult Bactrocera dorsalis CS07 assessed as mortality after 24 hr; conditions: CS07, 24 h
Bactrocera dorsalis [28] = assay: Insecticidal activity against adult Bactrocera dorsalis NN08 assessed as mortality after 24 hr; conditions: NN08, 24 h
Bactrocera dorsalis [29] = assay: Resistance ratio of LC50 for adult Bactrocera dorsalis NN07 to LC50 for adult Bactrocera dorsalis after 24 hr
Bactrocera dorsalis [30] = assay: Resistance ratio of LC50 for adult Bactrocera dorsalis GZ08 to LC50 for adult Bactrocera dorsalis after 24 hr
Bactrocera dorsalis [31] = assay: Resistance ratio of LC50 for adult Bactrocera dorsalis HY08 to LC50 for adult Bactrocera dorsalis after 24 hr
Bactrocera dorsalis [32] = assay: Resistance ratio of LC50 for adult Bactrocera dorsalis GZ07 to LC50 for adult Bactrocera dorsalis after 24 hr
Bactrocera dorsalis [33] = assay: Insecticidal activity against adult Bactrocera dorsalis CH08 assessed as mortality after 24 hr; conditions: CH08, 24 h
Bactrocera dorsalis [34] = assay: Resistance ratio of LC50 for adult Bactrocera dorsalis C-R-45 to LC50 for adult Bactrocera dorsalis
Bactrocera dorsalis [35] = assay: Insecticidal activity against adult Bactrocera dorsalis CH07 assessed as mortality after 24 hr; conditions: CH07, 24 h
Bactrocera dorsalis [36] = assay: Insecticidal activity against adult Bactrocera dorsalis C-R-48 assessed as mortality
Bactrocera dorsalis [37] = assay: Resistance ratio of LC50 for adult Bactrocera dorsalis HZ07 to LC50 for adult Bactrocera dorsalis after 24 hr
Bactrocera dorsalis [38] = assay: Insecticidal activity against adult Bactrocera dorsalis MM07 assessed as mortality after 24 hr; conditions: MM07, 24 h
Bactrocera dorsalis [39] = assay: Resistance ratio of LC50 for adult Bactrocera dorsalis CS08 to LC50 for adult Bactrocera dorsalis after 24 hr
Bactrocera dorsalis [40] = assay: Insecticidal activity against adult Bactrocera dorsalis assessed as mortality after 24 hr
Bactrocera dorsalis [41] = assay: Insecticidal activity against adult Bactrocera dorsalis HY08 assessed as mortality after 24 hr; conditions: HY08, 24 h
Bactrocera dorsalis [42] = assay: Insecticidal activity against adult Bactrocera dorsalis HY07 assessed as mortality after 24 hr; conditions: HY07, 24 h
Bactrocera dorsalis [43] = assay: Insecticidal activity against adult Bactrocera dorsalis YJ07 assessed as mortality after 24 hr; conditions: YJ07, 24 h
Bactrocera dorsalis [44] = assay: Insecticidal activity against adult Bactrocera dorsalis C-R-45 assessed as mortality
Bactrocera dorsalis [45] = assay: Insecticidal activity against adult Bactrocera dorsalis FZ07 assessed as mortality after 24 hr; conditions: FZ07, 24 h
Bactrocera dorsalis [46] = assay: Insecticidal activity against adult Bactrocera dorsalis QY08 assessed as mortality after 24 hr; conditions: QY08, 24 h
Bactrocera dorsalis [47] = assay: Resistance ratio of LC50 for adult Bactrocera dorsalis CH07 to LC50 for adult Bactrocera dorsalis after 24 hr
Bactrocera dorsalis [48] = assay: Resistance ratio of LC50 for adult Bactrocera dorsalis YJ08 to LC50 for adult Bactrocera dorsalis after 24 hr
Bactrocera dorsalis [49] = assay: Insecticidal activity against adult Bactrocera dorsalis WX07 assessed as mortality after 24 hr; conditions: WX07, 24 h
Bactrocera dorsalis [50] = assay: Resistance ratio of LC50 for adult Bactrocera dorsalis HK08 to LC50 for adult Bactrocera dorsalis after 24 hr
Bactrocera dorsalis [51] = assay: Resistance ratio of LC50 for adult Bactrocera dorsalis QY08 to LC50 for adult Bactrocera dorsalis after 24 hr
Bactrocera dorsalis [52] = assay: Resistance ratio of LC50 for adult Bactrocera dorsalis WX08 to LC50 for adult Bactrocera dorsalis after 24 hr
Bactrocera dorsalis [53] = assay: Resistance ratio of LC50 for adult Bactrocera dorsalis MM08 to LC50 for adult Bactrocera dorsalis after 24 hr
Bactrocera dorsalis [54] = assay: Insecticidal activity against adult Bactrocera dorsalis HK08 assessed as mortality after 24 hr; conditions: HK08, 24 h
Bactrocera dorsalis [55] = assay: Resistance ratio of LC50 for adult Bactrocera dorsalis WX07 to LC50 for adult Bactrocera dorsalis after 24 hr

**Q.** Which results are given for `CC1(C)[C@H](C=C(Cl)Cl)[C@H]1C(=O)O[C@@H](C#N)c1cccc(Oc2ccccc2)c1` [BETA-CYPERMETHRIN]?
**A.** LC50 (Bactrocera dorsalis [1]): 10.5 µg/mL (≈ 25.3 µM); LC50 (Bactrocera dorsalis [2]): 15.5 µg/mL (≈ 37.2 µM); RatioLC50 (Bactrocera dorsalis [3]): 13.14; RatioLC50 (Bactrocera dorsalis [4]): 1.1; RatioLC50 (Bactrocera dorsalis [5]): 5.02; LC50 (Bactrocera dorsalis [6]): 15.1 µg/mL (≈ 36.4 µM); RatioLC50 (Bactrocera dorsalis [7]): 3.01; LC50 (Bactrocera dorsalis [8]): 24.2 µg/mL (≈ 58.1 µM); LC50 (Bactrocera dorsalis [9]): 46.3 µg/mL (≈ 111 µM); RatioLC50 (Bactrocera dorsalis [10]): 333.42; RatioLC50 (Bactrocera dorsalis [11]): 5.34; RatioLC50 (Bactrocera dorsalis [12]): 6.23; RatioLC50 (Bactrocera dorsalis [13]): 17; LC50 (Bactrocera dorsalis [14]): 7.49 µg/mL (≈ 18 µM); RatioLC50 (Bactrocera dorsalis [15]): 6.06; LC50 (Bactrocera dorsalis [16]): 14.8 µg/mL (≈ 35.4 µM); RatioLC50 (Bactrocera dorsalis [17]): 8.17; RatioLC50 (Bactrocera dorsalis [18]): 6.08; RatioLC50 (Bactrocera dorsalis [19]): 28.39; LC50 (Bactrocera dorsalis [20]): 34.2 µg/mL (≈ 82.1 µM); LC50 (Bactrocera dorsalis [21]): 70.7 µg/mL (≈ 170 µM); LC50 (Bactrocera dorsalis [22]): 20.4 µg/mL (≈ 48.9 µM); LC50 (Bactrocera dorsalis [23]): 110 µg/mL (≈ 263 µM); RatioLC50 (Bactrocera dorsalis [24]): 24.35; LC50 (Bactrocera dorsalis [25]): 7.95 µg/mL (≈ 19.1 µM); LC50 (Bactrocera dorsalis [26]): 11.4 µg/mL (≈ 27.3 µM); LC50 (Bactrocera dorsalis [27]): 15.1 µg/mL (≈ 36.2 µM); LC50 (Bactrocera dorsalis [28]): 12.5 µg/mL (≈ 30 µM); RatioLC50 (Bactrocera dorsalis [29]): 3.19; RatioLC50 (Bactrocera dorsalis [30]): 9.71; RatioLC50 (Bactrocera dorsalis [31]): 17.06; RatioLC50 (Bactrocera dorsalis [32]): 18.6; LC50 (Bactrocera dorsalis [33]): 60.6 µg/mL (≈ 146 µM); RatioLC50 (Bactrocera dorsalis [34]): 329.3; LC50 (Bactrocera dorsalis [35]): 64.1 µg/mL (≈ 154 µM); LC90 (Bactrocera dorsalis [36]): 3959.5 µg/mL (≈ 9510 µM); LC50 (Bactrocera dorsalis [36]; Bactrocera dorsalis, C-R-48): 830 µg/mL (≈ 1990 µM); RatioLC50 (Bactrocera dorsalis [37]): 4.57; LC50 (Bactrocera dorsalis [38]): 42.3 µg/mL (≈ 102 µM); RatioLC50 (Bactrocera dorsalis [39]): 5.93; LC90 (Bactrocera dorsalis [40]): 3.6 µg/mL (≈ 8.65 µM); LC50 (Bactrocera dorsalis [40]; Bactrocera dorsalis, 24 h): 2.49 µg/mL (≈ 5.98 µM); LC50 (Bactrocera dorsalis [41]): 42.5 µg/mL (≈ 102 µM); LC50 (Bactrocera dorsalis [42]): 32.7 µg/mL (≈ 78.5 µM); LC50 (Bactrocera dorsalis [43]): 2.74 µg/mL (≈ 6.58 µM); LC90 (Bactrocera dorsalis [44]): 7082.07 µg/mL (≈ 17000 µM); LC50 (Bactrocera dorsalis [44]; Bactrocera dorsalis, C-R-45): 820 µg/mL (≈ 1970 µM); LC50 (Bactrocera dorsalis [45]): 13.3 µg/mL (≈ 31.9 µM); LC50 (Bactrocera dorsalis [46]): 12.2 µg/mL (≈ 29.4 µM); RatioLC50 (Bactrocera dorsalis [47]): 25.74; RatioLC50 (Bactrocera dorsalis [48]): 4.23; LC50 (Bactrocera dorsalis [49]): 23.9 µg/mL (≈ 57.3 µM); RatioLC50 (Bactrocera dorsalis [50]): 12.17; RatioLC50 (Bactrocera dorsalis [51]): 4.91; RatioLC50 (Bactrocera dorsalis [52]): 44.03; RatioLC50 (Bactrocera dorsalis [53]): 13.72; LC50 (Bactrocera dorsalis [54]): 30.3 µg/mL (≈ 72.8 µM); RatioLC50 (Bactrocera dorsalis [55]): 9.59
